Results taken from PubChem BioAssay AID330 (DTP/NCI, 2004).
Values joined by “and” are separate entries in the source; they are usually repeats but may differ in a detail not shown here. Identical values can stand only once. Inconclusive results and toxic doses are left out.

Tested on: P388 leukemia ip, CD2F1 mice, survival T/C
Assay: NCI In Vivo Anticancer Drug Screen. Data for tumor model P388 Leukemia (intraperitoneal) in CD2F1 (CDF1) mice
Settings: endpoint: median survival time, higher = longer survival
Summary of the method: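 Mice carrying the transplanted tumor received test compound or vehicle. Survival was recorded in each group, and the value is the treated-group measurement divided by that of the vehicle-treated control group.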

[1] = dose: 100.0 mg/kg/injection, schedule: Q04DX003 (ip), vehicle: Klucel (hydroxypropylcellulose) (HPC)
[2] = dose: 200.0 mg/kg/injection, schedule: Q04DX003 (ip), vehicle: Klucel (hydroxypropylcellulose) (HPC)
[3] = dose: 400.0 mg/kg/injection, schedule: Q04DX003 (ip), vehicle: Klucel (hydroxypropylcellulose) (HPC)
[4] = dose: 50.0 mg/kg/injection, schedule: Q01DX005 (ip), vehicle: Klucel (hydroxypropylcellulose) (HPC)
[5] = dose: 100.0 mg/kg/injection, schedule: Q01DX005 (ip), vehicle: Klucel (hydroxypropylcellulose) (HPC)
[6] = dose: 200.0 mg/kg/injection, schedule: Q01DX005 (ip), vehicle: Klucel (hydroxypropylcellulose) (HPC)
[7] = dose: 200.0 mg/kg/injection, schedule: Q01DX009 (ip), vehicle: saline with Tween-80
[8] = dose: 100.0 mg/kg/injection, schedule: Q04DX002 (ip), vehicle: saline with Tween-80
[9] = dose: 200.0 mg/kg/injection, schedule: Q04DX002 (ip), vehicle: saline with Tween-80
[10] = dose: 400.0 mg/kg/injection, schedule: Q04DX002 (ip), vehicle: saline with Tween-80
[11] = dose: 25.0 mg/kg/injection, schedule: Q04DX003 (ip), vehicle: saline
[12] = dose: 100.0 mg/kg/injection, schedule: Q04DX003 (ip), vehicle: saline
[13] = dose: 200.0 mg/kg/injection, schedule: Q04DX003 (ip), vehicle: saline
[14] = dose: 50.0 mg/kg/injection, schedule: Q01DX009 (ip), vehicle: Klucel (hydroxypropylcellulose) (HPC)
[15] = dose: 100.0 mg/kg/injection, schedule: Q01DX009 (ip), vehicle: Klucel (hydroxypropylcellulose) (HPC)
[16] = dose: 200.0 mg/kg/injection, schedule: Q01DX009 (ip), vehicle: Klucel (hydroxypropylcellulose) (HPC)
[17] = dose: 50.0 mg/kg/injection, schedule: Q01DX009 (ip), vehicle: saline
[18] = dose: 200.0 mg/kg/injection, schedule: Q01DX009 (ip), vehicle: saline
[19] = dose: 50.0 mg/kg/injection, schedule: Q01DX009 (ip), vehicle: saline with Tween-80
[20] = dose: 100.0 mg/kg/injection, schedule: Q01DX009 (ip), vehicle: saline with Tween-80

In the case of `Clc1ccc(CN2Cc3ccc4cccnc4c3OC2c2ccncc2)cc1Cl` (centres undefined), the T/C [1] is reported as 100 % of control, the T/C [2] is reported as 96 % of control and the T/C [3] is reported as 103 % of control.

In the case of `CN(C)C1C(=O)C(C(=O)NC[N+]23CCO[B-]2(c2ccc(Cl)cc2)OCC3)=C(O)C2(O)C(=O)C3=C(O)c4c(O)cccc4C(C)(O)C3CC12` (centres undefined), the T/C (dose: 25.0 mg/kg/injection, schedule: Q01DX005 (ip), vehicle: Klucel (hydroxypropylcellulose) (HPC)) is reported as 111 % of control, the T/C [4] is reported as 107 % of control and 108 % of control and 110 % of control and the T/C [5] is reported as 108 % of control (2×) and 114 % of control. The T/C [6] was 108 % of control and 119 % of control and 120 % of control.

`Cc1ccccc1-c1nc2c(N)nc(N)nc2nc1N` was tested, and the T/C (dose: 100.0 mg/kg/injection, schedule: Q04DX003 (ip), vehicle: saline with Tween-80) was 109 % of control, the T/C [7] was 172 % of control and the T/C (dose: 200.0 mg/kg/injection, schedule: Q04DX003 (ip), vehicle: saline with Tween-80) was 109 % of control. The T/C (dose: 264.0 mg/kg/injection, schedule: Q04DX003 (ip), vehicle: saline with Tween-80) was 113 % of control, the T/C (dose: 300.0 mg/kg/injection, schedule: Q01DX009 (ip), vehicle: saline with Tween-80) was 109 % of control and the T/C (dose: 400.0 mg/kg/injection, schedule: Q04DX003 (ip), vehicle: saline with Tween-80) was 113 % of control.

With `Cc1ccc(N=c2scc(-c3ccccc3)n2-c2ccccc2)cc1` the T/C [8] was 102 % of control, the T/C [9] was 93 % of control and the T/C [10] was 95 % of control.

For `Nc1ccccc1NC(=O)c1nc2ccccc2[nH]1`, the T/C [1] was 106 % of control, the T/C [2] was 97 % of control and the T/C [3] was 97 % of control.

In the case of `[Cu+2].[O-]/C(=N\N=C\c1ccccn1)c1ccccc1O.[O-]/C(=N\N=C\c1ccccn1)c1ccccc1O`, the T/C (dose: 50.0 mg/kg/injection, schedule: Q04DX002 (ip), vehicle: saline with Tween-80) is reported as 98 % of control, the T/C [8] is reported as 95 % of control and the T/C [9] is reported as 94 % of control.

With `CNC(=O)NNc1ccccc1` the T/C (dose: 25.0 mg/kg/injection, schedule: Q04DX003 (ip), vehicle: Klucel (hydroxypropylcellulose) (HPC)) was 100 % of control, the T/C (dose: 50.0 mg/kg/injection, schedule: Q04DX003 (ip), vehicle: Klucel (hydroxypropylcellulose) (HPC)) was 102 % of control and the T/C [1] was 97 % of control. The T/C [2] was 102 % of control and the T/C [3] was 103 % of control.

In the case of `NC(=S)N/N=C/c1ccnnc1`, the T/C (dose: 3.12 mg/kg/injection, schedule: Q04DX003 (ip), vehicle: saline) is reported as 104 % of control and 97 % of control, the T/C (dose: 6.25 mg/kg/injection, schedule: Q04DX003 (ip), vehicle: saline) is reported as 100 % of control and 97 % of control and the T/C (dose: 12.5 mg/kg/injection, schedule: Q04DX003 (ip), vehicle: saline) is reported as 104 % of control and 108 % of control. For the same compound, the T/C [11] was 98 % of control and 100 % of control, the T/C (dose: 25.0 mg/kg/injection, schedule: Q04DX003 (ip), vehicle: suspension in saline) was 99 % of control and the T/C [12] was 103 % of control. The T/C [13] was 97 % of control and the T/C (dose: 400.0 mg/kg/injection, schedule: Q04DX003 (ip), vehicle: saline) was 97 % of control.

`O=C(Nc1ccc(Cl)c(Cl)c1)OCc1cccnc1` was tested, and the T/C [14] was 95 % of control, the T/C [15] was 97 % of control and the T/C [16] was 95 % of control.

For `CNc1nc(-c2ccccc2)c(-c2ccccc2)[nH]1`, the T/C (dose: 6.25 mg/kg/injection, schedule: Q04DX002 (ip), vehicle: saline) was 105 % of control, the T/C (dose: 12.5 mg/kg/injection, schedule: Q04DX002 (ip), vehicle: saline) was 100 % of control and the T/C (dose: 25.0 mg/kg/injection, schedule: Q04DX002 (ip), vehicle: saline) was 97 % of control.

With `Cn1cnc([N+](=O)[O-])c1Sc1ncnc2nc[nH]c12` the T/C (dose: 216.0 mg/kg/injection, schedule: Q01DX001 (ip), vehicle: saline with Tween-80) was 106 % of control and 122 % of control, the T/C (dose: 360.0 mg/kg/injection, schedule: Q01DX001 (ip), vehicle: saline with Tween-80) was 118 % of control and the T/C (dose: 600.0 mg/kg/injection, schedule: Q01DX001 (ip), vehicle: saline with Tween-80) was 108 % of control and 79 % of control.

`COc1ccccc1OC(C)=O` was tested, and the T/C [17] was 97 % of control and the T/C [18] was 88 % of control.

`CC(c1ccccc1)c1cc(C(C)(C)C)c(O)c(C(C)(C)C)c1` (centres undefined) was tested, and the T/C (dose: 50.0 mg/kg/injection, schedule: Q01DX005 (ip), vehicle: distilled water + alcohol) was 100 % of control, the T/C (dose: 100.0 mg/kg/injection, schedule: Q01DX005 (ip), vehicle: distilled water + alcohol) was 99 % of control and the T/C (dose: 200.0 mg/kg/injection, schedule: Q01DX005 (ip), vehicle: distilled water + alcohol) was 93 % of control.

For `CN(C)C(CC(N)=O)C(=O)O` (centres undefined), the T/C (dose: 50.0 mg/kg/injection, schedule: Q01DX009 (ip), vehicle: water) was 101 % of control, the T/C (dose: 100.0 mg/kg/injection, schedule: Q01DX009 (ip), vehicle: water) was 102 % of control and the T/C (dose: 200.0 mg/kg/injection, schedule: Q01DX009 (ip), vehicle: water) was 97 % of control.

In the case of `CCCCC(CC)(CCN)CCCC`, the T/C (dose: 5.0 mg/kg/injection, schedule: Q01DX009 (ip), vehicle: suspension in saline) is reported as 107 % of control, the T/C (dose: 10.0 mg/kg/injection, schedule: Q01DX009 (ip), vehicle: suspension in saline) is reported as 103 % of control and the T/C (dose: 20.0 mg/kg/injection, schedule: Q01DX009 (ip), vehicle: suspension in saline) is reported as 90 % of control.

For `O[C@]12CC=CC[C@]1(O)CC(N1CCCCC1)C2`, the T/C (dose: 12.5 mg/kg/injection, schedule: Q01DX009 (ip), vehicle: saline with Tween-80) was 100 % of control, the T/C (dose: 25.0 mg/kg/injection, schedule: Q01DX009 (ip), vehicle: saline with Tween-80) was 120 % of control and 93 % of control and the T/C [19] was 100 % of control and 111 % of control. The T/C [20] was 93 % of control.

`CCOC(=O)/C(C#N)=C/NCC1CC1` was tested, and the T/C (dose: 60.0 mg/kg/injection, schedule: Q01DX005 (ip), vehicle: Klucel (hydroxypropylcellulose) (HPC)) was 102 % of control, the T/C (dose: 120.0 mg/kg/injection, schedule: Q01DX005 (ip), vehicle: Klucel (hydroxypropylcellulose) (HPC)) was 98 % of control and the T/C (dose: 240.0 mg/kg/injection, schedule: Q01DX005 (ip), vehicle: Klucel (hydroxypropylcellulose) (HPC)) was 98 % of control.

`O=[N+]([O-])c1cccc(C2OCC3(CO2)COC(c2cccc([N+](=O)[O-])c2)OC3)c1` (centres undefined) was tested, and the T/C [17] was 100 % of control, the T/C (dose: 100.0 mg/kg/injection, schedule: Q01DX009 (ip), vehicle: saline) was 100 % of control and the T/C [18] was 101 % of control.

In the case of `O=c1[nH]c2ccccc2n1C1CCN(CC(O)C2COc3ccccc3O2)CC1` (centres undefined), the T/C [19] is reported as 94 % of control, the T/C [20] is reported as 106 % of control and the T/C [7] is reported as 103 % of control.

`CCOC(=O)C1=C(C)O/C(=C/c2ccc(OC)cc2)C1=O` was tested, and the T/C [14] was 98 % of control, the T/C [15] was 93 % of control and the T/C [16] was 100 % of control.

`CCCSc1nn2cc(NC(=O)OC)nc2s1` was tested, and the T/C (dose: 50.0 mg/kg/injection, schedule: Q01DX005 (ip), vehicle: saline with Tween-80) was 97 % of control, the T/C (dose: 100.0 mg/kg/injection, schedule: Q01DX005 (ip), vehicle: saline with Tween-80) was 100 % of control and the T/C (dose: 200.0 mg/kg/injection, schedule: Q01DX005 (ip), vehicle: saline with Tween-80) was 103 % of control.

With `O=C(CC(=NCC(O)CN=C(CC(=O)c1ccccc1)c1ccccc1)c1ccccc1)c1ccccc1` (centres undefined) the T/C [8] was 98 % of control, the T/C [9] was 98 % of control and the T/C [10] was 91 % of control.

With `O=C(O)c1ccc[nH]c1=O` the T/C [11] was 98 % of control, the T/C (dose: 50.0 mg/kg/injection, schedule: Q04DX003 (ip), vehicle: saline) was 112 % of control and the T/C [12] was 99 % of control. The T/C [13] was 93 % of control.

For `O=c1c2oc3ccccc3c2cnn1CCl`, the T/C [4] was 103 % of control, the T/C [5] was 103 % of control and the T/C [6] was 96 % of control.
